Legend:
[1] = target: T1, human GPR14-expressing CHO cell (Homo sapiens, UniProt Q9UKP6); experiment: Change in intracellular calcium concentration in human GPR14-expressing CHO cells (FLIPR), antagonist activity assay; type: cell-based; conditions: 10µl of 10nM urotensin II added, Fluo3, FLIPR
T1 construct: expressed in transfected cells
T1 sequence (Q9UKP6 1-389): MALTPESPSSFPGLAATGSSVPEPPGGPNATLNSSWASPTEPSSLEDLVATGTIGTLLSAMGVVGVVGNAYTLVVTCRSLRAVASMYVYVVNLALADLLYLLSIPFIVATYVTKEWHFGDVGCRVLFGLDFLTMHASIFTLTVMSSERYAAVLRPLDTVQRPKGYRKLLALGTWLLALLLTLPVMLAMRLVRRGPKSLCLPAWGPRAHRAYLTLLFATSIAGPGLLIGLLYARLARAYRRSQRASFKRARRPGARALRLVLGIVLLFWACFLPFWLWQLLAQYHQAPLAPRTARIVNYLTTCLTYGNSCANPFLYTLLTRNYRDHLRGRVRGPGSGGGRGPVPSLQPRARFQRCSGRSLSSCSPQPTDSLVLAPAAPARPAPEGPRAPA
Method: After the transformant E. coli DH5α/pcDNA3.1-hGPR14 prepared in Reference Example 2 was cultured, plasmid DNA for pcDNA3.1-hGPR1 was prepared by using Plasmid Midi Kit (Qiagen). The plasmid DNA was introduced into CHO dhfr cells using CellPhect Transfection Kit (Amersham Pharmacia Biotech) according to the protocol appended thereto. 10µg of DNA was co-precipitated with calcium phosphate to prepare a suspension which was then added to a 10cm petri dish on which 5 x 10^5 or 1 x 10^6 CHO dhfr^- cells had previously been inoculated 24 hours before then. Cells were cultured in a MEMα medium containing 10% fetal bovine serum for one day, subcultured, and cultured in a selection medium, a MEMα medium containing 0.4 mg/ml G418 (GIBCO BRL) and 10% dialysis fetal bovine serum. Colonies of transformed cells (CHO/hGPR14), which were human GPR14-expessing CHO cells growing in the selection medium, were selected.
GPR14-expressing CHO cells were inoculated on a 96-well plate at 1×10^4 cell/well, cultured for 48 hours, and then washed with 0.1ml of HBSS containing 20mM HEPES(pH7.4), 1% FCS and 1% penicillin-streptomycin (hereinafter referred to as "wash buffer"). Next, 100µl of another wash buffer containing 4µM Fluo3, 0.04% pluronic acid and 2.5mM probenicid (hereinafter referred to as "reaction buffer") was added thereto for reaction at 37°C for 1 hour. […]

[2] = target: T2, human GPR14 (Homo sapiens, UniProt Q9UKP6); experiment: Inhibition of binding of [125I]-labeled human urotensin II to GPR14 using human GPR14-expressing CHO cell membrane fraction; conditions: concentration showing 50% inhibition of human GPR14 binding activity, 1nM [125I]-labeled human urotensin II, 25°C for 3 hours, read-out: Inhibitory concentration
T2 construct: expressed in transfected cells
T2 sequence (Q9UKP6 1-389): T1 sequence (Q9UKP6 1-389)
Method: To 1 x 10^8 CHO/GPR14 cells were added 10 ml of homogenate buffer (10 mM NaHCO3, 5 mM EDTA, 0.5 mM PMSF, 1µg/ml pepstatin, 4µg/ml E64, 20µg/ml leupeptin), and disrupted using Polytron (12,000 rpm, 1 minute). Cell debris solution was centrifuged at 1,000g for 15 minutes to obtain a supernatant. The supernatant was then […] (in Beckman type 30 rotor, 30,000 rpm, 1 hour), and the resultant precipitant was collected as human GPR14-expressing CHO cell fraction.
Isotope-labeled human urotensin II to be used in experiments for testing inhibition of binding was prepared as described below. 5 µg of human urotensin II (available from Peptide Institute, Inc.) was dissolved in 25µl of 0.4M sodium acetate (pH 5.6). […]
Human GPR14-expressing CHO cell fraction was diluted in a membrane diluting buffer (20mM phosphate buffer (pH7.3), 150mM NaCl, 5mM MgCl2,0.1% BSA, 0.05% CHAPS, 0.5mM PMSF, 0.1µg/ml Pepstatin, 20µg/ml Leupeptin, 4µg/ml E-64) to prepare a solution of cell membrane fraction (protein concentration:3µg/ml) for assay. […] Next, the filter was washed three times with membrane diluting buffer (0.2ml), added with 20µl of Microscinti 20 (Packard), and determined for radioactivity in Topcount (Packard). Specific-binding is calculated by subtracting non-specific binding from the total binding. […]

IC50 [2] [nM] | Compound | urotensin II-induced increase in intracellular calcium concentration [1]
 | 1-benzyl-6-bromo-2,3-dihydro-1H-pyrrolo [2,3-b] quinoline-4-ylamine [Synthesis Example 1] | inhibited
2.4 | Nc1c2c(nc3ccc(Br)cc13)N(Cc1ccccc1)CC2 [compound 2] | inhibited
33 | Nc1c2c(nc3ccccc13)N(Cc1ccccc1)CC2 [compound 3] | 

From patent EP1262195A1, “VASOACTIVE AGENTS” (Takeda Chemical Industries, Ltd., priority 2000, dated 2001)
